Six molecules from ChEMBL document CHEMBL1201862, “PubChem BioAssay data set” (2004) can be followed below.

Experiment [1] can be described thus: NIH-3T3 fibroblast cytotoxicity, dose response, cytotoxicity control, cell-based, fluorescence, Alamar Blue, secondary assay (AID 2327).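 Also: NIH-3T3 mouse fibroblasts cultured with fluconazole at 8 µg/mL.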 It counts as functional. (Alamar Blue is a resazurin reagent that responds to reducing activity.)
For experiment [2], the system named is BJ. Kind of experiment: cytotoxicity toward BJ-TERT fibroblasts, dose response, cell-based, RAS-independent, luminescence (AID 1933). The experiment is classed as functional. To be noted: Homo sapiens.
Experiment [3] relates to BJ. Kind of experiment: cells. It counts as functional, cell-based. Conditions: Homo sapiens.
Experiment [4] can be described thus: C. albicans growth with fluconazole, confirmation, fluorescence, retest (AID 2467). The experiment is classed as functional, cell-based.
In experiment [5] the target is Luciferin 4-monooxygenase (Photinus pyralis, UniProt P08659). The experiment in a line: firefly luciferase enzyme inhibitors, dose response, biochemical, luminescence (AID 1891).
Experiment [6] in a line: Luminescence Cell-Based Dose Confirmation HTS to Identify Inhibitors of Platelet Dense Granule Release. [Related pubchem assays: 1663 (Primary HTS), 1678 (Summary of Project)]. The experiment is classed as functional.
Experiment [7] deals with BJ. Kind of experiment: cytotoxicity toward BJ-TERT-LT-ST fibroblasts, dose response, cell-based, RAS-independent, luminescence (AID 1935).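 Also: BJ fibroblasts immortalized with TERT plus LT and ST oncogenes.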 It counts as functional. To be noted: Homo sapiens.
Experiment [8] is described as follows: cytotoxicity toward DRD oncogenic fibroblasts, dose response, cell-based, non-viral oncogenic, luminescence (AID 1934). The experiment is classed as functional. Conditions: Homo sapiens.
Experiment [9] is described as follows: THP-1 cell cytotoxicity, dose response, cytotoxicity control for non-replicating M. tuberculosis project (AID 489025). The experiment is classed as functional.
The nature of experiment [10]: HepG2 cell cytotoxicity, dose response, cytotoxicity control for non-replicating M. tuberculosis project (AID 489018). The experiment is classed as functional. To be noted: Mycobacterium tuberculosis.
The nature of experiment [11]: Vero E6 cell cytotoxicity, dose response, cytotoxicity control for non-replicating M. tuberculosis project, secondary assay (AID 492998). It counts as functional, VeroE6. Conditions: Vero C1008.
For experiment [12], the target named is Heat shock protein HSP 90-alpha (Homo sapiens, UniProt P07900). The experiment is classed as functional, organism-based.
The target of experiment [13] is T1, Insulin-degrading enzyme (Homo sapiens, UniProt P14735).
T1 sequence (P14735 whole entry): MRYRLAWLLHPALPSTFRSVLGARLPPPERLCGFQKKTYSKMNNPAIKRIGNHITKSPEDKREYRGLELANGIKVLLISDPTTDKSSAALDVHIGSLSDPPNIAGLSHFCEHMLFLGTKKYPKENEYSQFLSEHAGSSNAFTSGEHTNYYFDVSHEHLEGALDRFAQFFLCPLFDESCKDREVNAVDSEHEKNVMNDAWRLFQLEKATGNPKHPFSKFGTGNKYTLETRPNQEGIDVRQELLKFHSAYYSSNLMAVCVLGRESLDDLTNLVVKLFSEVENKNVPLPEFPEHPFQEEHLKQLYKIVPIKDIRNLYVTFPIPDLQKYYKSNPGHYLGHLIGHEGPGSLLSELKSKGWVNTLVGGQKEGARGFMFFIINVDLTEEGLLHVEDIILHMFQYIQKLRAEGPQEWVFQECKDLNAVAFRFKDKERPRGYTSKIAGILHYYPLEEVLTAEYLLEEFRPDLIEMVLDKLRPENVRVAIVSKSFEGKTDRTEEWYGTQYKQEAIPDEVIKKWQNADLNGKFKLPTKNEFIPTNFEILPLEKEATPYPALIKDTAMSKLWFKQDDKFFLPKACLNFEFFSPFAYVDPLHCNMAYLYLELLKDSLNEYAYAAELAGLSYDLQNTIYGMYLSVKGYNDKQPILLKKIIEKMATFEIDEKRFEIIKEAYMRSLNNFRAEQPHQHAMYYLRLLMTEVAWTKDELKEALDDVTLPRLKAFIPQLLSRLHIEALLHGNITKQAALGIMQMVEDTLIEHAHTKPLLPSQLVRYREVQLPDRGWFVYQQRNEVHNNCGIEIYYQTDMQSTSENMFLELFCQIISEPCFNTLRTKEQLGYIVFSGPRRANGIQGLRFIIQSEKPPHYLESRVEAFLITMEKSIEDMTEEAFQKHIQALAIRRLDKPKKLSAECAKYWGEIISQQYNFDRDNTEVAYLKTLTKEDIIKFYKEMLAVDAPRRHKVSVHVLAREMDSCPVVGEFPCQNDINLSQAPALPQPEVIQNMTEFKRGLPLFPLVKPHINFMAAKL
Kind of experiment: activators of recombinant IDE enzyme, dose response, counter-screen for IDE activator project, biochemical, fluorescence polarization (AID 588681). Background: The purpose of a counterscreen is to sort out artefacts and off-target activity.

For experiment [14], the target named is T1, Insulin-degrading enzyme. The experiment in a line: activators of endogenous IDE in HEK cells, dose response, cell-based, fluorescence polarization (AID 588439). It counts as functional. A general note: In fluorescence polarisation assays a small probe gives low polarisation when free and higher when bound to something large.
Experiment [15] deals with HEK293. Kind of experiment: HEK cell cytotoxicity by LDH release, dose response, cytotoxicity control for IDE activator project, fluorescence, HEK cells (AID 588440).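 Also: cytotoxicity by LDH release measuring loss of membrane integrity.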 It counts as functional, cell-based. Conditions: Homo sapiens.
In experiment [16] the test system is HEK293. Kind of experiment: optical interference in Abeta FP readout, dose response, artefact control for IDE activator project, biochemical, fluorescence polarization (AID 588442). The experiment is classed as functional, cell-based. To be noted: Homo sapiens.
For experiment [17], the target named is Paired box protein Pax-8 (Homo sapiens, UniProt Q06710). The experiment in a line: inhibitors of PAX8-driven TPO luciferase reporter, dose response, RMG-I cells, cherry-pick (AID 687027).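 Also: luciferase reporter driven by Pax8 target thyroperoxidase promoter measured by SteadyGlo luminescence.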 The experiment is classed as functional, cell-based.
Experiment [18] can be described thus: A549 cell cytotoxicity, dose response, cytotoxicity control, plate reader, cherry-pick, antagonist series (AID 743412). The experiment is classed as functional, cell-based.
Experiment [19] can be described thus: HepG2 cell cytotoxicity, dose response, cytotoxicity control, plate reader, cherry-pick, antagonist series (AID 743416). The experiment is classed as functional, cell-based.
The nature of experiment [20]: LGR2 antagonists, dose response, cell-based, HEK293, CRE-luciferase reporter, cherry pick, set 2 (AID 743343).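 Also: transfected cells were stimulated with diluted bursicon conditioned medium after compound addition.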 The experiment is classed as functional.
Experiment [21] in a line: non-specific cell cytotoxicity, dose response, cytotoxicity control for PAX8 inhibitor project, plate reader, dry powder samples (AID 743021). It counts as functional, cell-based.
Experiment [22] can be described thus: MC4R antagonists, dose response, counter-screen for LGR2 antagonist project, cell-based, plate reader, cherry pick (AID 743444).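 Also: transfected HEK 293 cells stimulated with alpha-MSH peptide; potency of inhibitors of the alpha-MSH evoked signal.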 The experiment is classed as functional.
Experiment [23] can be described thus: HEK293 cell cytotoxicity, dose response, cytotoxicity control, plate reader, cherry-picked samples (AID 743446). The experiment is classed as functional, cell-based.
The test system of experiment [24] is Vero. The experiment in a line: host cell cytotoxicity of antiviral hits, dose response, cytotoxicity control for West Nile virus antiviral project, secondary assay (AID 1650). To be noted: Chlorocebus sabaeus. The experiment is classed as functional.
Experiment [25] can be described thus: THP-1 cell cytotoxicity, dose response, cytotoxicity control for Vif-APOBEC3G degradation inhibitor project, THP-1 cells (AID 1117359). To be noted: Human immunodeficiency virus 1, THP-1. It counts as functional.
Experiment [26] is described as follows: Luminescence Cell-Based Dose Confirmation HTS to Identify Activators of 5'UTR Stem-Loop Driven Alpha-Synuclein mRNA Translation in H4 Neuroglioblastoma Cells. [Related pubchem assays: 1829 (Project Summary), 1814 (Primary HTS)]. The experiment is classed as functional.
Experiment [27] in a line: Luminescence Cell-Based Dose Response HTS to Identify Activators of Luciferase Translation or Activity in H4 […] Cells. [Related pubchem assays: 1829 (Project Summary), 1814 (Primary HTS)]. The experiment is classed as functional.
The subject of experiment [28] is H4. Kind of experiment: Luminescence Cell-Based Dose Response HTS to Identify Activators of 5'UTR Stem-Loop Driven Prion Protein mRNA Translation in H4 Neuroglioblastoma Cells. [Related pubchem assays: 1829 (Project Summary), 1814 (Primary HTS)]. To be noted: Homo sapiens. The experiment is classed as functional.
Experiment [29] is described as follows: inhibitors of intracellular T. cruzi replication, confirmation, NIH3T3 host cells, beta-gal luminescence (AID 2044).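 Also: intracellular parasites grown in NIH/3T3 mouse fibroblasts as host cells; luminescent beta-galactosidase reporter signal from transgenic T. cruzi replicating inside host cells; inhibitors lower the luminescence signal.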 It counts as functional, cell-based.
Experiment [30] in a line: cytotoxicity toward NIH3T3 fibroblasts, dose response, counter-screen, cell-based, ATP luminescence, mouse fibroblasts (AID 2010).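 Also: cells exposed to compound for about 90 hours before reading.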 It counts as functional.
Experiment [31] deals with Vero. The experiment in a line: cells. It counts as functional. Conditions: Chlorocebus sabaeus.
Experiment [32] can be described thus: cells.

Structures are written as SMILES. Activity calls are given as the source filed them.

Chain of Paired box protein Pax-8 (Q06710 whole entry): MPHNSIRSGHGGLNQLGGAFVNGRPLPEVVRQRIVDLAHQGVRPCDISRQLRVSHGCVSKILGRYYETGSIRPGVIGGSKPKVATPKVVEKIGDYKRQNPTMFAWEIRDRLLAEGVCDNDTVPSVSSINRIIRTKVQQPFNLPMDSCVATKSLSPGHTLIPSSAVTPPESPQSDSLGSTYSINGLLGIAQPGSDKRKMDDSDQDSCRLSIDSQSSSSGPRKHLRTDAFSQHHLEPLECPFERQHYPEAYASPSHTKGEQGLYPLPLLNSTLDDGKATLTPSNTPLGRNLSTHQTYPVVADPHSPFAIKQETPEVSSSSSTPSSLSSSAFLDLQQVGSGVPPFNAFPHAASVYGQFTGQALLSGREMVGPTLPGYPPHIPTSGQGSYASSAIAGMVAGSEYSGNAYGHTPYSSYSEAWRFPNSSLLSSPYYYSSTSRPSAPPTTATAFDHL
Chain of Luciferin 4-monooxygenase (P08659 whole entry): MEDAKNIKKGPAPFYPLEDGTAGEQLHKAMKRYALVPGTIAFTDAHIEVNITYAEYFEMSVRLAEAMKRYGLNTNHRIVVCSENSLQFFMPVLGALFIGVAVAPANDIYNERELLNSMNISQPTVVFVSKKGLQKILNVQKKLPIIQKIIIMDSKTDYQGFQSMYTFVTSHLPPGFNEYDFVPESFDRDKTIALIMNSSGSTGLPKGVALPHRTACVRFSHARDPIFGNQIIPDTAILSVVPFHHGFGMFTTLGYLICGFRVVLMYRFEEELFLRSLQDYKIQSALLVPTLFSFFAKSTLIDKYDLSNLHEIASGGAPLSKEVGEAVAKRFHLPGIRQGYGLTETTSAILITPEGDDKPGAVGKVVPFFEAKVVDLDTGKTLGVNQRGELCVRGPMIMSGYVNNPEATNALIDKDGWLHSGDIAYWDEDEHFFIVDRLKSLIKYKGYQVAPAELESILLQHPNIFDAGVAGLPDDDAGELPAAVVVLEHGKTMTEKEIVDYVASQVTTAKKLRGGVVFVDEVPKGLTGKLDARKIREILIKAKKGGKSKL

As for `COc1ccc(NC(=O)c2cc([N+](=O)[O-])ccc2O)cc1`, the concentration giving a half-maximal response (EC50) (commonly the concentration giving half of the maximal effect) in [1] is 11.6 µM (active); in [2] it was 9.48 µM (active); in [3], 5.17 µM (active); in experiment [4], 1.27 µM (active); in experiment [5], 0.129 µM (active); in [6], 2.15 µM (active). In addition, the EC50 in experiment [7] was > 150 µM (inconclusive); in experiment [8], 6.2 µM (active); in [13], > 54.7 µM (inactive); in [14], > 54.7 µM (inactive); in [16], > 54.7 µM (inactive). The figures for the half-maximal cytotoxic concentration (CC50) in experiment [9], in experiment [10] and in experiment [11] were 26.5 µM (active), > 20 µM (active) and > 20 µM (active), respectively. The half-maximal activity concentration (AC50) (commonly the midpoint of the concentration-response curve, whichever way the signal moves) in experiment [12] is 3.37 µM (active); in experiment [17] it was 5.39 µM (active); in [18] it was 11.9 µM (active); in experiment [19], 9.22 µM (active); in experiment [20] it was 0.784 µM (active); in experiment [21] it was 12.4 µM (active). Besides, the half-maximal activity concentration (AC50) in experiment [22] was 0.739 µM (active); in [23], 6.28 µM (active). In addition, the IC50 – broadly, the concentration at which inhibition is half-maximal – in experiment [15] is > 89.1 µM (inactive).
As to `COC1CC(OC2CCC3(C)C(CCC4C3CCC3(C)C(C5=CC(=O)OC5)C(OC(C)=O)CC43O)C2)OC(C)C1OC1OC(COC2OC(CO)C(O)C(O)C2O)C(O)C(O)C1O` (configuration not stated), the CC50 – broadly, the concentration that lowers cell viability or growth by half – in experiment [24] was 4.14 µM (active).
Take `CNc1ccc(Br)cc(C(=O)/C=C/c2cccc(OC)c2OC)c1=O`: in [25], the CC50 was > 40 µM (active).
For the molecule `O=C(NN(c1ccccc1)c1ccccc1)c1ccc([N+](=O)[O-])o1`, the 50% effective concentration (EC50) in experiment [26] is 44.6 µM (active); in experiment [27], > 120 µM (not active); in experiment [28] it was > 120 µM (not active); in [29], < 0.1 µM (active); in experiment [30], > 60 µM (not active); in experiment [32], 0.14 µM (active). Further, the cytotoxic concentration (CC50) in experiment [31] is 17.4 µM (active).
Consider `COc1ccc(CN2CCCC(N3CCN(c4cccc(Cl)c4)CC3)C2)cc1OC` (configuration not stated), for which the 50% effective concentration (EC50) in experiment [29] was < 0.1 µM (active); in experiment [30], > 60 µM (not active); in experiment [32], 0.038 µM (active).
`CC(C)N1C(=O)/C(=C/c2nc3ccccc3c(=O)n2-c2ccccc2)c2ccccc21`: the CC50 in experiment [24] is 27.3 µM (active). The EC50 in experiment [29] was 0.997 µM (active).
